Measurements as given in patent publication US20170190726A9, “PRODRUG FOR RELEASE OF CISPLATIN AND CYCLOOXYGENASE INHIBITOR” (priority 2013, published 2017).

Tests used:
ovine COX-1 = target: T1, ovine COX-1 (Ovis aries, UniProt P05979); assay: In vitro COX inhibition assay (EIA), COX-1; assay type: biochemical; settings: ovine COX-1, EIA, 0.25-1.5 mM, aspirin as positive control
T1 construct: purchased Cayman Chemicals 560101
T1 sequence (P05979 25-600): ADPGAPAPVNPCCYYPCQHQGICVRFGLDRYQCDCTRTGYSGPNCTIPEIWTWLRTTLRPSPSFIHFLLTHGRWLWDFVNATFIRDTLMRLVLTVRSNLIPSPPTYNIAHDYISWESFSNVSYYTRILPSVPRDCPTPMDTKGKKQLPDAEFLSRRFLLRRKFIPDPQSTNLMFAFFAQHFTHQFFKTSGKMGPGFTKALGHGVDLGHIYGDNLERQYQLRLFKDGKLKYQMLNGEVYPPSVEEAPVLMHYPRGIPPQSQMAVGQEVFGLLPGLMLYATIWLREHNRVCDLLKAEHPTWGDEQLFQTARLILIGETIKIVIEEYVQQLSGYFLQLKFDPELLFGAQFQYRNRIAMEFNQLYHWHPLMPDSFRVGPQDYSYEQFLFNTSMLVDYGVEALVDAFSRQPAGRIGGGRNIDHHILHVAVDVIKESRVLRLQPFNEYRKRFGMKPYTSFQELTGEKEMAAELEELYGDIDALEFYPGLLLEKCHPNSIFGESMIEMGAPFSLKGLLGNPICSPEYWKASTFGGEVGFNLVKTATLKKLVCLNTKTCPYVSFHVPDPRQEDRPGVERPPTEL
Procedure: An enzyme immunoassay (EIA) kit from Cayman Chemicals (catalogue number 560101) was used to assess the ability of Platin-A to inhibit ovine COX-1 and COX-2. COX inhibition assay was performed as per the manufacturer protocol. All stock solutions were prepared following manufactures instruction. This inhibition assay was carried out using a two-step process: COX reaction and EIA. COX reaction involved preparation of following samples.
(i) Background samples: COX-1 and COX-2 were inactivated by transferring 20 μL of each enzyme to an eppendorf tube and placing the tube in boiling water for 3 min. […] (ii) COX-1 or COX-2 100% initial activity samples: 950 μL of reaction buffer, 10 μL of heme, 10 μL of COX-1 or COX-2, and 20 μL of reaction buffer were added to each test tube. (iii) COX-1 or COX-2 inhibitor samples: 950 μL of reaction buffer, 10 μL of heme, 10 μL of COX-1 or COX-2 and 20 μL of COX-1 and COX-2 inhibitors under investigation, aspirin and Platin-A of different concentrations (0.25, 0.5, 0.75, 1, and 1.5 mM for COX-1; 0.75, 1, 1.25, 1.5, and 2 mM for COX-2) were added to each test tube.
All the samples were incubated for 5 min in water bath at 37° C. […]
For EIA, 100 μL of EIA buffer was added to non-specific binding well and 50 μL of EIA buffer to maximum binding wells. […] Absorbance was recorded at a wavelength of 410 nm using a plate reader.

IL-6 = assay: ELISA of IL-6 in LPS-stimulated RAW 264.7 macrophages; assay type: cell-based, mouse
Procedure: RAW 264.7 cells were plated at a concentration of 10,000 cells/mL in 96 plates and allowed to grow overnight. For preventative anti-inflammatory treatment, Platin-A (10 μM), aspirin (10 μM), cisplatin (10 μM) and an equimolar ratio of cisplatin and aspirin (10 μM each) was incubated with the RAW cells for 6 h. Lipopolysaccharide (LPS) (100 ng/mL) was added and the cells were further incubated for 12 h. For therapeutic anti-inflammatory treatment, LPS (100 ng/mL) was added to the RAW cells and incubated for 6 h. Platin-A (10 μM), aspirin (10 μM), cisplatin (10 μM) and an equimolar ratio of cisplatin and aspirin (10 μM each) was then added to the cells and incubated for 12 h. ELISA was performed on the supernatants against the cytokines interleukin (IL)-6, IL-10, and TNF-α. Briefly, antibody coated plates were blocked with 10% FBS in PBS for 1 h at room temperature followed by 3 washes. RAW cell supernatants were incubated on the plates for 2 h at room temperature. This was immediately followed by washings and sequential incubations with the cytokine-biotin conjugate and streptavidin working solution. Finally, the substrate reagent containing 3,3′,5,5′-tetramethylbenzidine (100 μL) was added to each well, incubated for 15 min, the reaction was stopped by adding 50 μL H2SO4 (0.1 M). The absorbance was recorded at 450 nm using a BioTek Synergy HT well plate reader.

Cyclic voltammetry = assay type: physicochemical
Procedure: FIG. 6: Cyclic voltammograms of ‘Platin-A’ in 1:4 dimethyformamide (DMF)-phosphate buffer-0.1 M KCl at two different pH values.
Electrochemical measurements were made at 25° C. on an analytical system model CHI 920c potentiostat from CH Instruments, Inc. (Austin, Tex.). A conventional three-electrode set-up comprising a glassy carbon working electrode, platinum wire auxiliary electrode and an Ag/AgCl (3M KCl) reference electrode was used for electrochemical measurements. The electrochemical data were uncorrected for junction potentials. KCl was used as a supporting electrolyte. Platin-A (2 mM) solutions were prepared in 20% DMF-phosphate buffered saline (PBS) of pH 6.4 and 7.4 with […] and voltammograms were recorded at different scan rates (FIG. 6).

[1] = Aspirin release from Platin-A by RP-HPLC after sodium ascorbate reduction; assay type: physicochemical; settings: acetonitrile-water, HPLC 280 nm
Procedure: The remarkable anticancer activity of cisplatin is due to its inherent proficiency to bind with the N7 position of guanine bases leading to DNA damage. To mimic the intracellular reduction of Platin-A to cisplatin and activity of generated cisplatin with DNA, Platin-A was reduced with sodium ascorbate in the presence of 2′-deoxyguanosine 5′-monophosphate sodium salt hydrate (5′-GMP) as a truncated version of DNA, and the products were analyzed by matrix-assisted laser desorption/ionization (MALDI)-time of flight (TOF)-mass spectrometry (MS). […] Binding studies with 5′-GMP provided strong evidence that cisplatin released upon reduction of Platin-A will interact with nuclear DNA efficiently. The release of the other drug, aspirin from Platin-A was analyzed by HPLC (FIG. 8). […] As time progress, formation of increasing amounts of salicylic acid, the main metabolite of aspirin was detected (FIG. 8). This observation supported the release of aspirin moiety from Platin-A in its pristine form or its final metabolite form for COX inhibitory and anti-inflammatory activities, respectively.
The ability of Platin-A to release aspirin under reducing atmosphere was studied RP-HPLC. Reduction of Platin-A (2.97 mg, 2 mM) was carried out using sodium ascorbate (5.28 mg, 10 mM) in acetonitrile-water (1:2, 3 mL) and reduction product was examined by HPLC. […]

## CC(=O)Oc1ccccc1C(=O)[O][Pt]([NH2])([NH2])([OH])([Cl])[Cl] [Platin-A]
Ovine COX-1
  COX-1 inhibition: very similar inhibition of both COX-1 and COX-2 as shown by aspirin
IL-6; preventive: pretreatment 10 μM 6 h, then LPS 12 h
  LPS-induced IL-6 production: significantly inhibited
IL-6; therapeutic: LPS activated macrophages then 10 μM for 12 h
  levels of IL-6: significantly reduced
Cyclic voltammetry; pH 6.4 compared with pH 7.4
  positive shift of reduction potential: 42 mV
Cyclic voltammetry; pH 7.4, vs. normal hydrogen electrode (NHE)
  reduction potential: −536 mV
[1]
  release of aspirin upon reduction: initially produces aspirin upon reduction
